This passage reports TGI results from PubChem BioAssay (NCI).

Test systems include CCRF-CEM leukemia; EKVX NSCLC; HOP-92 NSCLC; LOX IMVI melanoma; UACC-257 melanoma; BT-549 breast; HCT-15 colon; MDA-N; HS 578T breast; UO-31 renal; MOLT-4 leukemia; RPMI-8226 leukemia; SF-539 CNS; SNB-19 CNS; NCI-H460 lung.
Holding throughout (test): NCI anticancer screen, dose series, 48 h

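96-well plates; 48 h exposure; 5 concentrations. Endpoints by linear interpolation between flanking doses. Not reached: highest tested concentration assigned. TGI: concentration producing complete growth inhibition.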 A value given as a limit tells only on which side of the number the result lay.

Take `CC1CC/C(=C\c2ccc(Cl)cc2)C(=O)/C1=C\c1ccc(Cl)cc1` (stereo not drawn): the TGI with CCRF-CEM leukemia was above 100 µM; with EKVX NSCLC, 63.7 µM; with HOP-92 NSCLC, above 100 µM; with LOX IMVI melanoma, above 100 µM; in the assay on UACC-257 melanoma it was above 100 µM; in the assay on BT-549 breast it was 50.3 µM. Moreover, the TGI was 50.4 µM in the assay with HCT-15 colon, above 100 µM in the assay on MDA-N, 93.8 µM with HS 578T breast and above 100 µM with UO-31 renal.
On to `Cc1ccc(/C(O)=C/c2nc3ccccc3nc2NC23CC4CC(CC(C4)C2)C3)cc1`, for which the TGI in the assay with MOLT-4 leukemia, with HOP-92 NSCLC, in the assay on LOX IMVI melanoma, in the assay with UACC-257 melanoma, in the assay with RPMI-8226 leukemia and in the assay on BT-549 breast was above 10 µM throughout. Also, the TGI in the assay on HCT-15 colon, in the assay on SF-539 CNS, in the assay on MDA-N, in the assay with HS 578T breast and with SNB-19 CNS was above 10 µM each time.
Consider `O=c1[nH]nc(Cc2ccccc2)n1N=C1CCCCC1`, for which the TGI in the assay with CCRF-CEM leukemia, in the assay on MOLT-4 leukemia, in the assay with EKVX NSCLC, in the assay with HOP-92 NSCLC, with LOX IMVI melanoma and in the assay with UACC-257 melanoma was above 100 µM in each case. Besides, the TGI in the assay with RPMI-8226 leukemia, in the assay on BT-549 breast, with HCT-15 colon, with MDA-N, in the assay on HS 578T breast and in the assay on UO-31 renal was above 100 µM in each case. Besides, the TGI in the assay with NCI-H460 lung and with SNB-19 CNS was above 100 µM in each case.
For `O=C1c2scc(-c3ccc(F)cc3)c2-n2cccc21`, the TGI in the assay with CCRF-CEM leukemia, in the assay on MOLT-4 leukemia, with EKVX NSCLC, in the assay with LOX IMVI melanoma, in the assay with UACC-257 melanoma and with RPMI-8226 leukemia was above 100 µM each time. Besides, the TGI is 79.7 µM with BT-549 breast; above 100 µM in the assay with HCT-15 colon; 28.8 µM in the assay on MDA-N; above 100 µM in the assay with HS 578T breast; above 100 µM in the assay on UO-31 renal; above 100 µM with NCI-H460 lung. In the assay with SNB-19 CNS, this compound gave a TGI above 100 µM.
Regarding `CSC1=C(C)S/C(=C\c2ccc(/C=C3\SC(C)=C(SC)S3)cc2)S1`, the TGI with CCRF-CEM leukemia, with MOLT-4 leukemia, with EKVX NSCLC, in the assay with HOP-92 NSCLC, with LOX IMVI melanoma and in the assay on UACC-257 melanoma was above 100 µM throughout. In addition, the TGI with BT-549 breast is above 100 µM; in the assay with HCT-15 colon it was above 100 µM; in the assay with SF-539 CNS it was 92.5 µM; in the assay on MDA-N it was above 100 µM; in the assay on HS 578T breast, above 100 µM; in the assay on UO-31 renal it was above 100 µM. Moreover, the TGI in the assay with NCI-H460 lung and with SNB-19 CNS was above 100 µM throughout.
Consider `COc1ccccc1/[N+]([O-])=C/c1ccccc1OC(=S)S`, for which the TGI is above 100 µM in the assay on MOLT-4 leukemia; above 100 µM with EKVX NSCLC; 61.8 µM with HOP-92 NSCLC; above 100 µM in the assay on LOX IMVI melanoma; above 100 µM in the assay on UACC-257 melanoma; 63.7 µM with RPMI-8226 leukemia. In addition, the TGI in the assay on BT-549 breast was above 100 µM; in the assay on HCT-15 colon, above 100 µM; in the assay with SF-539 CNS it was above 100 µM; in the assay with MDA-N, 35.9 µM; in the assay on HS 578T breast it was above 100 µM; in the assay with UO-31 renal, above 100 µM. Besides, the TGI in the assay with NCI-H460 lung and in the assay with SNB-19 CNS was above 100 µM in each case.
For `COC(=O)/N=[N+](\[O-])C(c1ccc(Cl)cc1)c1ccc(Cl)cc1`, the TGI was above 100 µM in the assay on CCRF-CEM leukemia; above 100 µM in the assay on MOLT-4 leukemia; above 100 µM in the assay on EKVX NSCLC; 43.6 µM in the assay on LOX IMVI melanoma; above 100 µM in the assay with UACC-257 melanoma; 67.3 µM with RPMI-8226 leukemia. For the same compound, the TGI is above 100 µM in the assay with BT-549 breast; above 100 µM with HCT-15 colon; above 100 µM in the assay with SF-539 CNS; above 100 µM in the assay with MDA-N; above 100 µM with HS 578T breast; 51.2 µM in the assay on UO-31 renal. The TGI in the assay on NCI-H460 lung and in the assay with SNB-19 CNS was above 100 µM each time.
Take `CN(C(=O)C12C3C4C1C1C2C3C41C(=O)O)C(C)(C)C` (stereo not drawn): the TGI with CCRF-CEM leukemia, in the assay on MOLT-4 leukemia, in the assay with EKVX NSCLC, with HOP-92 NSCLC, in the assay on LOX IMVI melanoma and in the assay with UACC-257 melanoma was above 100 µM each time. Moreover, the TGI with BT-549 breast, in the assay with HCT-15 colon, with SF-539 CNS, in the assay on MDA-N, in the assay on HS 578T breast and in the assay with UO-31 renal was above 100 µM in each case. Besides, the TGI with NCI-H460 lung and in the assay with SNB-19 CNS was above 100 µM throughout.
As for `COc1ccc(-c2c(C#N)c(N)n(C3OCC(O)C(O)C3O)c(=S)c2C#N)cc1` (stereo not drawn), the TGI in the assay on CCRF-CEM leukemia, with MOLT-4 leukemia, with LOX IMVI melanoma, in the assay with RPMI-8226 leukemia, in the assay on BT-549 breast and with HCT-15 colon was above 100 µM throughout. The TGI with SF-539 CNS, in the assay with MDA-N, in the assay on HS 578T breast, in the assay on UO-31 renal, in the assay on NCI-H460 lung and in the assay on SNB-19 CNS was above 100 µM throughout.
Consider `O=C(/C=C/c1ccsc1)c1cccs1`, for which the TGI was 54.6 µM in the assay on CCRF-CEM leukemia; above 10 µM with MOLT-4 leukemia; 99.4 µM in the assay on EKVX NSCLC; 93.5 µM in the assay on HOP-92 NSCLC; above 100 µM in the assay with UACC-257 melanoma; 48 µM with BT-549 breast. Also, the TGI was 37 µM in the assay on HCT-15 colon; above 100 µM with SF-539 CNS; above 100 µM with MDA-N; above 100 µM in the assay with HS 578T breast; 34.3 µM in the assay on UO-31 renal; above 100 µM with NCI-H460 lung. The compound further yielded a TGI in the assay on SNB-19 CNS above 100 µM.
For `[N-]=[N+]=NC1(c2ccccc2)C(=O)c2cccc3c4ccccc4n(c23)C1=O` (stereo not drawn), the TGI in the assay with CCRF-CEM leukemia, in the assay on MOLT-4 leukemia, in the assay with EKVX NSCLC, with LOX IMVI melanoma, with UACC-257 melanoma and in the assay on RPMI-8226 leukemia was above 100 µM throughout. Further, the TGI in the assay with BT-549 breast, in the assay with HCT-15 colon, with SF-539 CNS, with MDA-N, in the assay on HS 578T breast and in the assay on UO-31 renal was above 100 µM each time. Moreover, the TGI in the assay on NCI-H460 lung and with SNB-19 CNS was above 100 µM throughout.
